The values that follow are results of earlier work, collected in patent US20230113077A1, “CONTROLLED RELEASE SELEXIPAG COMPOSITION” (ACTELION PHARMACEUTICALS LTD, priority 2020, published 2023).

The conditions of this data set: phase III clinical trial; patients with pulmonary arterial hypertension; selexipag versus placebo.

As for `CC(C)N(CCCCOCC(=O)NS(C)(=O)=O)c1cnc(-c2ccccc2)c(-c2ccccc2)n1` [selexipag, 2-{4-[N-(5,6-diphenylpyrazin-2-yl)-N-isopropylamino]butyloxy}-N-(methylsulfonyl)acetamide], the “risk of the primary composite end point of death or a complication related to pulmonary arterial hypertension” value was “significantly lower”.
